In brackets after ≈: the same amount, converted by molar mass. Where a SMILES comes first, the peptide text is derived from it. Bridges are numbered along the chain shown (N, C = ends). Roman numbers before positions name the chains, in order. [ ]: non-standard residue; d: D form. The star is where a group is joined. Thr(ol) = C[C@@H](O)[C@H](N)CO; Tle = CC(C)(C)[C@H](N)C(=O)O; Hiv = CC(C)[C@H](O)C(=O)O; dDab = NCC[C@@H](N)C(=O)O; hSer = N[C@@H](CCO)C(=O)O; Isobutyryl = CC(C)C(=O)*; Orn = NCCC[C@H](N)C(=O)O; Dab = NCC[C@H](N)C(=O)O; Dap = NC[C@H](N)C(=O)O
Experiments:
Format in all cases: cell-based
Escherichia coli 926415 = conditions: 926415
Summary of the method: (§1)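 MIC in μg/mL, read as no visible growth after 18-20 hours at 35° C. Peptides were serially diluted two-fold in MH-II broth plus P-80 (0.002% final, v/v) and inoculated at about 10^6 CFU/mL following the CLSI broth microdilution standard.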

[1] = test system: Acinetobacter baumannii 872842; conditions: 872842
Summary of the method: as §1

[2] = test system: Klebsiella pneumoniae 968733; conditions: 968733
Summary of the method: as §1

[3] = test system: Klebsiella pneumoniae SSI #3010; conditions: SSI #3010
Summary of the method: as §1

[4] = test system: Enterobacter cloacae 848840; conditions: 848840
Summary of the method: as §1

[5] = test system: Acinetobacter baumannii DSM 30008; conditions: DSM 30008
Summary of the method: as §1

[6] = test system: Escherichia coli ATCC 25922; conditions: ATCC 25922
Summary of the method: as §1

[7] = test system: Pseudomonas aeruginosa ATCC 27853; conditions: ATCC 27853
Summary of the method: as §1

[8] = test system: human red blood cells (hRBC); assay: Hemolysis; conditions: red cells of human, 1 h, 200
Summary of the method: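 Hemoglobin release from PBS-washed hRBC at 20% (v/v), incubated 1 h at 37° C with peptides at 200 μg/mL, is measured at 540 nm. Values are blank corrected and given as a fraction of Triton X-100 lysis × 100%.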

| MIC (Escherichia coli 926415) [µg/mL] | MIC [1] [µg/mL] | MIC [2] [µg/mL] | MIC [3] [µg/mL] | MIC [4] [µg/mL] | MIC [5] [µg/mL] | MIC [6] [µg/mL] | MIC [7] [µg/mL] | Compound | Hemolysis at 200 μg/mL [8] [%] |
| --- | --- | --- | --- | --- | --- | --- | --- | --- | --- |
| 0.125 (≈ 0.0531 µM) | 0.125 (≈ 0.0531 µM) | 0.5 (≈ 0.212 µM) | 0.125 (≈ 0.0531 µM) | 0.25 (≈ 0.106 µM) | 0.125 (≈ 0.0531 µM) | 0.0625 (≈ 0.0265 µM) | 0.25 (≈ 0.106 µM) | CC(C)C[C@@H]1NC(=O)[C@@H](CC(C)C)NC(=O)[C@H](CCN)NC(=O)[C@@H](NC(=O)[C@H](CN)NC(=O)[C@@H](NC(=O)[C@H](CCN)NC(=O)CC[C@@H]2NC(=O)[C@@H](CCN)NC(=O)CNC(=O)[C@H](CCN)NC(=O)[C@H](Cc3ccc(O)cc3)NC(=O)[C@@H](NC(=O)[C@@H](O)C(C)C)CSSC[C@@H](C(=O)N[C@H](C(N)=O)[C@@H](C)O)NC(=O)[C@H](C(C)(C)C)NC(=O)[C@H](CO)NC(=O)[C@H](Cc3c[nH]c4ccccc34)NC2=O)[C@@H](C)O)CCNC(=O)[C@H]([C@@H](C)O)NC(=O)[C@H](CCN)NC(=O)[C@H](CCN)NC1=O [Ex. 168] (I: H-[Hiv]CY[Dab]G[dDab]EWS[Tle]CT-NH2 / II: [Dab]T[Dap][Dab][Dab][dL]L[Dab][Dab]T; disulfide I:2-I:11; amide I:7-II:N; lactam II:4-II:C) | <1 |
| 1 (≈ 0.414 µM) | 0.5 (≈ 0.207 µM) | 1 (≈ 0.414 µM) | 0.125 (≈ 0.0518 µM) | 0.25 (≈ 0.104 µM) | 0.125 (≈ 0.0518 µM) | 0.0625 (≈ 0.0259 µM) | 0.25 (≈ 0.104 µM) | CC(C)C[C@@H]1NC(=O)[C@@H](CC(C)C)NC(=O)[C@H](CCN)NC(=O)[C@@H](NC(=O)[C@H](CN)NC(=O)[C@@H](NC(=O)[C@H](CCN)NC(=O)CC[C@@H]2NC(=O)[C@H](CCN)NC(=O)[C@H](Cc3ccc(O)cc3)NC(=O)[C@@H](NC(=O)[C@@H](O)C(C)C)CSSC[C@@H](C(=O)N[C@@H](CO)C(N)=O)NC(=O)[C@H](C(C)C)NC(=O)[C@H](CCC(=O)O)NC(=O)[C@H](Cc3c[nH]c4ccccc34)NC(=O)[C@H](CCO)NC(=O)[C@@H](CCN)NC2=O)[C@@H](C)O)CCNC(=O)[C@H]([C@@H](C)O)NC(=O)[C@H](CCN)NC(=O)[C@H](CCN)NC1=O [Ex. 157] (I: H-[Hiv]CY[Dab]E[dDab][hSer]WEVCS-NH2 / II: [Dab]T[Dap][Dab][Dab][dL]L[Dab][Dab]T; disulfide I:2-I:11; amide I:5-II:N; lactam II:4-II:C) | <1 |
| 0.5 (≈ 0.201 µM) | 0.25 (≈ 0.101 µM) | 1 (≈ 0.403 µM) | 0.125 (≈ 0.0503 µM) | 0.125 (≈ 0.0503 µM) | 0.0625 (≈ 0.0252 µM) | 0.0625 (≈ 0.0252 µM) | 0.25 (≈ 0.101 µM) | CC(=O)N[C@H](C(=O)N[C@H]1CSSC[C@@H](C(=O)N[C@@H](CO)C(N)=O)NC(=O)[C@H](C(C)C)NC(=O)[C@H](CCC(=O)O)NC(=O)[C@H](Cc2c[nH]c3ccccc23)NC(=O)[C@H](CCO)NC(=O)[C@@H](CCN)NC(=O)[C@H](CCC(=O)N[C@@H](CCN)C(=O)N[C@H](C(=O)N[C@@H](CN)C(=O)N[C@H]2CCNC(=O)[C@H]([C@@H](C)O)NC(=O)[C@H](CCN)NC(=O)[C@H](CCN)NC(=O)[C@H](CC(C)C)NC(=O)[C@@H](CC(C)C)NC(=O)[C@H](CCN)NC2=O)[C@@H](C)O)NC(=O)[C@H](CCCCN)NC(=O)[C@H](Cc2ccc(O)cc2)NC1=O)C(C)C [Ex. 158] (I: Ac-VCYKE[dDab][hSer]WEVCS-NH2 / II: [Dab]T[Dap][Dab][Dab][dL]L[Dab][Dab]T; disulfide I:2-I:11; amide I:5-II:N; lactam II:4-II:C) | <1 |
| 0.25 (≈ 0.105 µM) | 0.125 (≈ 0.0527 µM) | 0.25 (≈ 0.105 µM) | 0.125 (≈ 0.0527 µM) | 2 (≈ 0.844 µM) | 0.0625 (≈ 0.0264 µM) | 0.125 (≈ 0.0527 µM) | 0.125 (≈ 0.0527 µM) | CC(C)C[C@@H]1NC(=O)[C@@H](CC(C)C)NC(=O)[C@H](CCN)NC(=O)[C@@H](NC(=O)[C@H](CCN)NC(=O)[C@@H](NC(=O)[C@H](CCN)NC(=O)CC[C@@H]2NC(=O)[C@H](CCN)NC(=O)[C@H](Cc3ccc(O)cc3)NC(=O)[C@@H](NC(=O)C(C)C)CSSC[C@@H](C(=O)N[C@H](CO)[C@@H](C)O)NC(=O)[C@H](C(C)(C)C)NC(=O)[C@H](CO)NC(=O)[C@H](Cc3c[nH]c4ccccc34)NC(=O)[C@H](CCO)NC(=O)[C@@H](CCN)NC2=O)[C@@H](C)O)CCNC(=O)[C@H]([C@@H](C)O)NC(=O)[C@H](CCN)NC(=O)[C@H](CCN)NC1=O [Example 3] (I: Isobutyryl-CY[Dab]E[dDab][hSer]WS[Tle]C[Thr(ol)] / II: [Dab]T[Dab][Dab][Dab][dL]L[Dab][Dab]T; disulfide I:1-I:10; amide I:4-II:N; lactam II:4-II:C) | <1 |

The next lines start with the compound.

| Compound | MIC (Escherichia coli 926415) [µg/mL] | MIC [1] [µg/mL] | MIC [2] [µg/mL] | MIC [3] [µg/mL] | MIC [4] [µg/mL] | MIC [5] [µg/mL] | MIC [6] [µg/mL] | MIC [7] [µg/mL] | Hemolysis at 200 μg/mL [8] [%] |
| --- | --- | --- | --- | --- | --- | --- | --- | --- | --- |
| CC(=O)N[C@H](C(=O)N[C@H]1CCCNC(=O)[C@@H](CCC(N)=O)NC(=O)[C@H](C(C)(C)C)NC(=O)[C@H](CO)NC(=O)[C@H](Cc2c[nH]c3ccccc23)NC(=O)[C@H](CCO)NC(=O)[C@@H](CCN)NC(=O)[C@H](CCC(=O)N[C@@H](CCN)C(=O)N[C@H](C(=O)N[C@@H](CN)C(=O)N[C@H]2CCNC(=O)[C@H]([C@@H](C)O)NC(=O)[C@H](CCN)NC(=O)[C@H](CCN)NC(=O)[C@H](CC(C)C)NC(=O)[C@@H](CC(C)C)NC(=O)[C@H](CCN)NC2=O)[C@@H](C)O)NC(=O)[C@H](CO)NC(=O)[C@H](Cc2ccc(O)cc2)NC1=O)C(C)C [Ex. 20] (I: Ac-V[Orn]YSE[dDab][hSer]WS[Tle][dQ] / II: [Dab]T[Dap][Dab][Dab][dL]L[Dab][Dab]T; lactam I:2-I:C, II:4-II:C; amide I:5-II:N) | 1 (≈ 0.426 µM) | 0.5 (≈ 0.213 µM) | 2 (≈ 0.852 µM) | 0.125 (≈ 0.0532 µM) | 0.25 (≈ 0.106 µM) | 0.125 (≈ 0.0532 µM) | 0.125 (≈ 0.0532 µM) | 0.25 (≈ 0.106 µM) | <1 |
| CC(=O)N[C@H](C(=O)N[C@H]1CCCNC(=O)[C@@H](CCN)NC(=O)[C@H](C(C)(C)C)NC(=O)[C@H](CO)NC(=O)[C@H](Cc2c[nH]c3ccccc23)NC(=O)[C@H](CCO)NC(=O)[C@@H](CCN)NC(=O)[C@H](CCC(=O)N[C@@H](CCN)C(=O)N[C@H](C(=O)N[C@@H](CN)C(=O)N[C@H]2CCNC(=O)[C@H]([C@@H](C)O)NC(=O)[C@H](CCN)NC(=O)[C@H](CCN)NC(=O)[C@H](CC(C)C)NC(=O)[C@@H](CC(C)C)NC(=O)[C@H](CCN)NC2=O)[C@@H](C)O)NC(=O)[C@H](CO)NC(=O)[C@H](Cc2ccc(O)cc2)NC1=O)C(C)C [Ex. 28] (I: Ac-V[Orn]YSE[dDab][hSer]WS[Tle][dDab] / II: [Dab]T[Dap][Dab][Dab][dL]L[Dab][Dab]T; lactam I:2-I:C, II:4-II:C; amide I:5-II:N) | 8 (≈ 3.45 µM) | 4 (≈ 1.72 µM) | 8 (≈ 3.45 µM) | 0.125 (≈ 0.0539 µM) | 0.125 (≈ 0.0539 µM) | 0.125 (≈ 0.0539 µM) | 0.125 (≈ 0.0539 µM) | 0.25 (≈ 0.108 µM) | <1 |
| CC(=O)N[C@H](C(=O)N[C@H]1CSSC[C@@H](C(=O)N[C@@H](CO)C(N)=O)NC(=O)[C@H](C(C)(C)C)NC(=O)[C@H](CCC(=O)O)NC(=O)[C@H](Cc2c[nH]c3ccccc23)NC(=O)[C@H](CO)NC(=O)[C@@H](CCN)NC(=O)[C@H](CCC(=O)N[C@@H](CCN)C(=O)N[C@H](C(=O)N[C@@H](CN)C(=O)N[C@H]2CCNC(=O)[C@H]([C@@H](C)O)NC(=O)[C@H](CCN)NC(=O)[C@H](CCN)NC(=O)[C@H](CC(C)C)NC(=O)[C@@H](CC(C)C)NC(=O)[C@H](CCN)NC2=O)[C@@H](C)O)NC(=O)[C@H](CCN)NC(=O)[C@H](Cc2ccc(O)cc2)NC1=O)C(C)C [Ex. 154] (I: Ac-VCY[Dab]E[dDab]SWE[Tle]CS-NH2 / II: [Dab]T[Dap][Dab][Dab][dL]L[Dab][Dab]T; disulfide I:2-I:11; amide I:5-II:N; lactam II:4-II:C) | 0.125 (≈ 0.0509 µM) | 0.0625 (≈ 0.0255 µM) | 0.25 (≈ 0.102 µM) | 0.0625 (≈ 0.0255 µM) | 0.125 (≈ 0.0509 µM) | 0.01562 (≈ 0.00636 µM) | 0.03125 (≈ 0.0127 µM) | 0.125 (≈ 0.0509 µM) | <1 |
